Patent US20260092061A1, “COMPOUNDS FOR TARGETED PROTEIN DEGRADATION” (Amphista Therapeutics Limited, priority 2022, published 2026)
Read-outs that look alike come from different tables or passages of the source.

What was measured:
[1] = biological target: T1, BRD9 (Homo sapiens, UniProt Q9H8M2); test: Degradation of BRD9 (IF), immunofluorescence in MV4-11 cells, 24 hours (Assay Protocol 2); type: cell-based; parameters: A suspension of MV4-11 cells (ATCC CRL-9591) was prepared; host or cells: MV4-11
T1 sequence (Q9H8M2 1-597): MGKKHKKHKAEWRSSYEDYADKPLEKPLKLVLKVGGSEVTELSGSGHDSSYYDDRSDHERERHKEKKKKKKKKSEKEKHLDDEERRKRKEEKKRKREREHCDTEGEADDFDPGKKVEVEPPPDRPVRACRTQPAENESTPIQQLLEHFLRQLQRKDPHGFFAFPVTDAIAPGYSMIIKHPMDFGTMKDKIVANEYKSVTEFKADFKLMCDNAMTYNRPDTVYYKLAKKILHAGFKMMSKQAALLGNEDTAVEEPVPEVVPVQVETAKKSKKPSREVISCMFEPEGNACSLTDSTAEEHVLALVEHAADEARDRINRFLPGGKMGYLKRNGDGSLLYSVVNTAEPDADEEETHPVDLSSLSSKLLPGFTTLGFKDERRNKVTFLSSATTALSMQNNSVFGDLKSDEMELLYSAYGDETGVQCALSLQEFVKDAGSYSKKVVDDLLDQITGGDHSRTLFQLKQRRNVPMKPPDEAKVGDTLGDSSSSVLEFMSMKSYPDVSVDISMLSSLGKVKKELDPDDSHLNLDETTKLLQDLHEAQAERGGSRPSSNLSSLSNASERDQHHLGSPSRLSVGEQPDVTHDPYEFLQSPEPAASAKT
Summary of the method: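 MV4-11 cells treated with compound 24 h at 37° C., then fixed, permeabilised and immunostained for BRD9 (anti-BRD9 E4Q3F, Alexa 647 secondary, Hoechst counterstain). High-content imaging quantified nuclear BRD9 signal; % BRD9 remaining normalised to DMSO and 100 nM CFT-8634 controls.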

[2] = biological target: T2, BRD7 (Homo sapiens, UniProt Q9NPI1); test: BRD7 degradation, HiBiT-BRD7 KI HEK293 (LgBiT) cells, NanoGlo Lytic Endpoint assay (Assay Protocol 1); type: cell-based; conditions: Table 5, assay protocol 1; for Dmax: HEK293
T2 construct: HiBiT-BRD7 KI HEK293 (LgBiT) Cells (Promega CS3023410); host or cells: HEK293 (LgBiT), HiBiT knock-in at the BRD7 locus
T2 sequence (Q9NPI1 1-651): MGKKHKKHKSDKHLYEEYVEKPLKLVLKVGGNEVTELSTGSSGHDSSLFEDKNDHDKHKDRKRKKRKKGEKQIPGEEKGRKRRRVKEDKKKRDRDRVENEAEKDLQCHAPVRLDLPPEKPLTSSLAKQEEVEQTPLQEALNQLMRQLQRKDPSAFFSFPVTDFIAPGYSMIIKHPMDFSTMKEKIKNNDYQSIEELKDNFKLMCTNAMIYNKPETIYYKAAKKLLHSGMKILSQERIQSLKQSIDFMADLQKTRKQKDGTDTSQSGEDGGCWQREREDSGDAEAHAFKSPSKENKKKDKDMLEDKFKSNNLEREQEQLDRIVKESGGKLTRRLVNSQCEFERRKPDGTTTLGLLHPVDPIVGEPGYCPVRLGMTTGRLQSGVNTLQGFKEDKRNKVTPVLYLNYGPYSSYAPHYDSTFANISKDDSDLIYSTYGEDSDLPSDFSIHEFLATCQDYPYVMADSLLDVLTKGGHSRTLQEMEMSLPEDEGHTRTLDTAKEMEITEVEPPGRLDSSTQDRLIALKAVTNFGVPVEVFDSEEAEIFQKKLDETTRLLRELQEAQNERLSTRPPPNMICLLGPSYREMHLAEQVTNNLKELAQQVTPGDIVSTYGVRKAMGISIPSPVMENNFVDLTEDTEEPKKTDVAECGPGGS
Protocol: HiBiT-BRD9 KI HEK293 (LgBiT) Cells (Promega CS3023412) were seeded at 8000 cells per well (38 μL) in sterile white bottom 384 well plates (Invitrogen 164610 or Greiner 781080) and incubated overnight at 37° C. with 5% CO2. The next day, compounds were prepared at 1000× final concentration in DMSO and diluted 1:100 in media (DMEM PAN Biotech P04-03550+10% FBS ATCC 302025). […] The lytic buffer was equilibrated to room temperature for 10-15 min before lytic reagent was prepared by adding substrate (1:50) and LgBit protein (1:100) in lytic buffer. 40 μL lytic reagent mix was added to each well of the cel plate and plates were centrifuged briefly at ˜50g. Plates were incubated with shaking (350 RPM) for 12-24 min before reading using the LUM plus module of a BMG Pherastar FSX. Data was analysed using Dotmatics software and % BRD9 remaining was calculated by normalisation to average data from high and low control wells (DMSO treated cels and no cells respectively).
BRD7 degradation was determined in line with the procedure as outlined above for BRD9, with the exception that HiBiT-BRD7 KI HEK293 (LgBiT) Cells (Promega CS3023410) were seeded at 8000 cells per well (CPW) (36 uL) in sterile white bottom 384 well plates (Invitrogen 164610 or Greiner 781080) and incubated overnight at 37° C. with 5% CO2.

[3] = MV4-11, Table 4, BRD9 degradation, determined according to Assay Protocol 2, read-out: Dmax^2
[4] = Table 4, BRD9 degradation, determined according to Assay Protocol 2, read-out: DC50^2

Dmax [1, 3] | DC50 [1, 4] | Dmax [2] | DC50 [2] | Dmax ([1]; MV4-11, Table 5, cells marked *: measured in accordance with Assay Protocol 2, read-out: BRD9 Dmax (%)) | DC50 ([1]; Table 5, cells marked *: measured in accordance with Assay Protocol 2, read-out: BRD9 DC50) | Compound
50 to 70% | < 25 nM | < 25% | > 1000 nM | – | – | COc1cc(-c2cn(C)c(=O)c(C)c2C)cc(OC)c1CN1CC2CC1CN2C(=O)/C(C#N)=C/C(C)(C)C (mixture of isomers) [BRD9b]
> 70% | < 25 nM | < 25% | > 1000 nM | > 75% | < 1.25 nM | COc1cc(-c2cn(C)c(=O)c(C)c2C)cc(OC)c1CN1CCCN(C(=O)/C(C#N)=C/C(C)(C)C)CC1 [BRD9c, (E/Z)-2-(4-(2,6-dimethoxy-4-(1,4,5-trimethyl-6-oxo-1,6-dihydropyridin-3-yl)benzyl)-1,4-diazepane-1-carbonyl)-4,4-dimethylpent-2-enenitrile]

Compound | Dmax [1, 3] | DC50 [1, 4] | Dmax [2] | DC50 [2] | Dmax ([1]; MV4-11, Table 5, cells marked *: measured in accordance with Assay Protocol 2, read-out: BRD9 Dmax (%)) | DC50 ([1]; Table 5, cells marked *: measured in accordance with Assay Protocol 2, read-out: BRD9 DC50)
COc1cc(-c2cn(C)c(=O)c(C)c2C)cc(OC)c1CN1C2CC1CN(C(=O)/C(C#N)=C/c1cccc(Br)n1)C2 (mixture of isomers) [BRD9o, (E/Z)-3-(6-bromopyridin-2-yl)-2-(6-(2,6-dimethoxy-4-(1,4,5-trimethyl-6-oxo-1,6-dihydropyridin-3-yl)benzyl)-3,6-diazabicyclo[3.1.1]heptane-3-carbonyl)acrylonitrile] | – | 25 to 200 nM | 25 to 40% | > 1000 nM | – | –
